Measurements from paper PMC8765048 (JCI Insight, 2022).
Like-named read-outs stand apart in the source and are kept apart here.

Legend:
[1] = system: SARS-CoV-2 WA1; assay: microbe, parasite or virus in culture; type: cell-based
[2] = system: grivets; conditions: 10 days at 1.6 mg/kg/d and 28 days at 0.4 mg/kg/d; cited from earlier work
[3] = 24-hour plasma pharmacokinetics in CD-1 laboratory mice; type: in vivo, mouse; conditions: for apparent volume of distribution / total clearance / area under the curve to the last time point / Cmax: CD-1 mice, i.p. 60 mg/kg; for area under the curve to the last time point: 24 h; for Cmax: mouse, plasma, ip
Protocol: We next evaluated the 24-hour pharmacokinetics (PK) of sangivamycin in CD-1 laboratory mouse plasma. Sangivamycin’s plasma concentrations increased following i.p. injection of 60 mg/kg to a peak at 2 hours, then decreased over 6 or 8 hours, and remained virtually unchanged up to 24 hours after dosing. […] Graphing plasma concentration versus time produced an area under the curve to the last time point with values of 632 ± 66.6 h•ng/mL for males and 833 ± 53.9 h•ng/mL for females. […] Our data corroborate historical PK studies in mice with ^3H-labeled sangivamycin performed at the NCI in 1974 ([20]). In these studies, free nucleoside and mono-, di-, and triphosphate forms of sangivamycin were detected in blood, urine, and multiple tissues (e.g., heart, liver, brain, spleen, and kidneys) following i.p. injection of 8 mg/kg. The studies established that sangivamycin was phosphorylated after transportation into cells. In liver, heart, and brain, the predominant form of sangivamycin was sangivamycin 5′-monophosphate (SMP). […] Therefore, we determined the level of SMP in blood in our PK study using a published liquid chromatography–tandem mass spectrometry (LC-MS/MS) method with a lower limit of quantification of 1 ng/mL ([33]). Using this method, we detected SMP in the plasma of dosed mice but not control mice (Supplemental Figure 9B). The apparent levels of SMP increased in blood during the 24 hours of this study. There also was possible presence of a diphosphate metabolite of sangivamycin, but it was detected only in the plasma samples taken 24 hours after dosing.

[4] = system: HEK293T (human embryonic kidney); assay: CellTox Green Cytotoxicity Assay; conditions: ratio > 1 cytostatic, ≤ 1 cytotoxic
[5] = system: SARS-CoV-2 P.1 (Gamma); assay: microbe, parasite or virus in culture; type: cell-based
[6] = system: SARS-CoV-2 B.1.429 (Epsilon); assay: microbe, parasite or virus in culture; type: cell-based
[7] = system: SARS-CoV-2 B.1.427 (Epsilon); assay: microbe, parasite or virus in culture; type: cell-based
[8] = system: human cancer patients; conditions: 40 human cancer patients, cited from earlier work
[9] = system: Huh-7 cells; assay: Mitochondrial dye cell imaging (MTG, NAO); type: cell-based, human; conditions: 100 nM for 5 d, MTG and NAO
Text: Other important measures of cell viability are mitochondrial integrity, function, cardiotoxicity, and genotoxicity, since other nucleoside analogs may vary in their effect on these endpoints ([29], [30]). Dyes commonly used to assess mitochondrial integrity are MitoTracker Green (MTG), a mitochondrial stain mostly localized to mitochondria based on hydrophobicity, and N-alkyl acridine orange (NAO), which binds to mitochondrial cardiolipin. Untreated Huh-7 cells and Huh-7 cells treated for 5 days with 100 nM sangivamycin were stained with MTG and NAO and imaged by fluorescence microscopy. […] To more quantitatively assess the impact of sangivamycin on mitochondrial integrity, we evaluated the effect of sangivamycin on mitochondrial metabolic function as well as cytoplasmic glycolytic function. The XF96e Seahorse instrument was used to quantify the oxygen consumption rate (OCR) over time in untreated control and sangivamycin-treated Huh-7 cells. […] Standard metabolic endpoints quantified with or without sangivamycin included sequential treatment and washout of cell cultures with oligomycin (ATP synthase inhibitor), carbonyl cyanide 4-(trifluoromethoxy)phenylhydrazone (FCCP; a proton gradient uncoupler), and antimycin A + rotenone (complex I and III blockers) (Supplemental Figure 7).
Huh-7 cells were untreated or treated with 100 nM sangivamycin for 5 days. […]

[10] = Plasma protein binding assessment (equilibrium dialysis); type: in vitro ADME; conditions: 37°C
Protocol: The plasma protein binding assay was performed by Cyprotex to assess sangivamycin plasma protein binding. Equilibrium dialysis was used to determine the extent of binding of a compound to plasma proteins. A semipermeable membrane separated a protein-containing compartment (PC) from a protein-free compartment (PF). The system was set to equilibrate at 37°C. The test compound present in each compartment was then quantified by LC-MS/MS. The extent of binding is reported as a fraction unbound (fu) value, which is calculated as fu = 1 – ([PC – PF]/PC).

[11] = system: SARS-CoV-2; assay: Combinatorial sangivamycin/remdesivir efficacy testing, Calu-3 cells; type: cell-based; conditions: Severe acute respiratory syndrome coronavirus 2, Calu-3; read-out: IC50 (nM), S:R by [Sangivamycin]
[12] = system: Vero E6 (grivet kidney epithelial); assay: CellTox Green Cytotoxicity Assay; conditions: ratio > 1 cytostatic, ≤ 1 cytotoxic
[13] = system: SARS-CoV-2 B.1.1.7 (Alpha); assay: microbe, parasite or virus in culture; type: cell-based
[14] = system: SARS-CoV-2 B.1.351 (Beta); assay: microbe, parasite or virus in culture; type: cell-based
[15] = Severe acute respiratory syndrome coronavirus 2, Vero C1008, 48 h
[16] = Severe acute respiratory syndrome coronavirus 2, Vero C1008, 24 h
[17] = Severe acute respiratory syndrome coronavirus 2, Calu-3, 24 h
[18] = Severe acute respiratory syndrome coronavirus 2, Vero C1008, 18 h

**Q.** With `NC(=O)c1cn([C@@H]2O[C@H](CO)[C@@H](O)[C@H]2O)c2ncnc(N)c12` [Sangivamycin, sangivamycin] as the compound, how does the IC90 [1, 15] read?
**A.** 64 ± 3 nM

**Q.** And the IC50 ([1]; Severe acute respiratory syndrome coronavirus 2, Vero C1008, 48 h, read-out: IC50)?
**A.** 34 ± 1 nM

**Q.** And the IC50 ([1]; Severe acute respiratory syndrome coronavirus 2, Vero C1008, read-out: average IC50)?
**A.** 52 ± 13 nM

**Q.** And the “SI (selectivity index, CC50/IC50)” value ([1]; WA1, Vero E6 cells)?
**A.** 14.4

**Q.** And the tolerability [2]?
**A.** tolerated

**Q.** And the “apparent volume of distribution” value ([3]; females)?
**A.** 167,000 mL/kg

**Q.** And the total clearance ([3]; females)?
**A.** 68,500 mL/h/kg

**Q.** And the “area under the curve to the last time point” value ([3]; females)?
**A.** 833 ± 53.9 ng·h/mL

**Q.** What about the “apparent volume of distribution” value ([3]; males) of the same compound?
**A.** 369,000 mL/kg

**Q.** And the total clearance ([3]; males)?
**A.** 85,400 mL/h/kg

**Q.** What about the “area under the curve to the last time point” value ([3]; males) of the same compound?
**A.** 632 ± 66.6 ng·h/mL

**Q.** What about the Cmax ([3]; female, females (285 ng/mL), read-out: Cmax, molar equivalent) of the same compound?
**A.** 922 nM

**Q.** What about the Cmax ([3]; female, females, read-out: Cmax of the plasma) of the same compound?
**A.** 285 ± 35.9 ng/mL

**Q.** And the Cmax ([3]; male, males (97.3 ng/mL), read-out: Cmax, molar equivalent)?
**A.** 314 nM

**Q.** What about the Cmax ([3]; male, males, read-out: Cmax of the plasma) of the same compound?
**A.** 97.3 ± 31 ng/mL

**Q.** What about the “Cmax relative to the average IC90 in the 3 cell lines tested” value ([3]; mouse plasma Cmax 314 nM and 922 nM) of the same compound?
**A.** 3- to 9 fold

**Q.** And the “Ratio CellTox Green/CellTiter-Glo” value [4]?
**A.** >5.65

**Q.** What about the “SI (selectivity index, CC50/IC50)” value ([5]; P.1 (Gamma), Vero E6 cells) of the same compound?
**A.** >22.2

**Q.** And the IC50 [5, 16]?
**A.** 27.1 nM

**Q.** And the IC90 [5, 16]?
**A.** 245 nM

**Q.** And the “SI (selectivity index, CC50/IC50)” value ([6]; B.1.429 (Epsilon), Vero E6 cells)?
**A.** >8.2

**Q.** What about the IC50 [6, 15] of the same compound?
**A.** 72.8 nM

**Q.** And the IC90 [6, 15]?
**A.** 465 nM

**Q.** And the “SI (selectivity index, CC50/IC50)” value ([7]; B.1.427 (Epsilon), Calu-3 cells)?
**A.** >7.3

**Q.** What about the IC50 [7, 17] of the same compound?
**A.** 82.2 nM

**Q.** What about the IC90 [7, 17] of the same compound?
**A.** 341 nM

**Q.** What about the MTD ([8]; 0.1–2.83 mg/kg total dose) of the same compound?
**A.** not reached

**Q.** And the tolerability ([8]; daily, thrice weekly, or weekly dosing, 0.1–2.83 mg/kg total dose)?
**A.** well tolerated

**Q.** What about the “activity against the disease (cancer)” value [8] of the same compound?
**A.** inactive

**Q.** What about the “Effect on mitochondrial integrity (imaging with mitochondrial dyes)” value [9] of the same compound?
**A.** Negative

**Q.** What about the “Effect on mitochondrial integrity (imaging with mitochondrial dyes)” value ([9]; listed as sangivamycin) of the same compound?
**A.** did not significantly affect mitochondrial structural integrity

**Q.** What about the fraction unbound ([10]; human) of the same compound?
**A.** 0.83

**Q.** And the fraction unbound ([10]; mouse)?
**A.** 0.879

**Q.** And the IC50 [11]?
**A.** 69.6 nM

**Q.** And the “Ratio CellTox Green/CellTiter-Glo” value [12]?
**A.** >10.2

**Q.** And the “SI (selectivity index, CC50/IC50)” value ([13]; B.1.1.7 (Alpha), Calu-3 cells)?
**A.** >10.1

**Q.** And the IC50 [13, 17]?
**A.** 59.1 nM

**Q.** What about the IC90 [13, 17] of the same compound?
**A.** 522 nM

**Q.** What about the “SI (selectivity index, CC50/IC50)” value ([14]; B.1.351 (Beta), Vero E6 cells) of the same compound?
**A.** >10.5

**Q.** And the IC50 [14, 18]?
**A.** 57.4 nM

**Q.** And the IC90 [14, 18]?
**A.** 224 nM
